# Values quoted from earlier work as cited in patent US20070293534A1, “Process for the preparation of mivacurium chloride” (FARMABIOS S.P.A., priority 2006, published 2007).
# Conditions: for neuromuscolar blocking potencies compared with each other: trans-trans versus cis-trans diastereoisomer
Structure (SMILES),neuromuscolar blocking potencies compared with each other,"neuromuscolar blocking potency relative to the other two diastereoisomers (fraction of the potency of the trans-trans and cis-trans diastereoisomers, estimated)"
COc1cc2c(cc1OC)[C@@H](Cc1cc(OC)c(OC)c(OC)c1)[N@@+](C)(CCCOC(=O)CC/C=C/CCC(=O)OCCC[N@+]1(C)CCc3cc(OC)c(OC)cc3[C@H]1Cc1cc(OC)c(OC)c(OC)c1)CC2.[Cl-].[Cl-] [cis-trans],not significantly different from each other,–
COc1cc2c(cc1OC)[C@@H](Cc1cc(OC)c(OC)c(OC)c1)[N@+](C)(CCCOC(=O)CC/C=C/CCC(=O)OCCC[N@+]1(C)CCc3cc(OC)c(OC)cc3[C@H]1Cc1cc(OC)c(OC)c(OC)c1)CC2.[Cl-].[Cl-] [trans-trans],not significantly different from each other,–
"COc1cc2c(cc1OC)[C@@H](Cc1cc(OC)c(OC)c(OC)c1)[N@@+](C)(CCCOC(=O)CC/C=C/CCC(=O)OCCC[N@@+]1(C)CCc3cc(OC)c(OC)cc3[C@H]1Cc1cc(OC)c(OC)c(OC)c1)CC2.[Cl-].[Cl-] (single isomer, unassigned) [cis-cis diastereoisomer]",–,approximately one tenth
